Results reported in PMC6331809, “Antigenotoxicity and Tumor Growing Inhibition by Leafy Brassica carinata and Sinigrin” (Molecules, 2015).
≈ marks a conversion by molar mass, not a printed value. Where “and” joins values, the source holds several entries; their conditions need not be identical. Identical values can stand only once. Like-named read-outs stand apart in the source and are kept apart here. Marks after values point to notes of the source that are not given here.

What was measured:
[1] = tested on: induced hepatocarcinogenesis in rats; parameters: method as in PMID 2387027; dose or concentration left out as unconfirmed; settings: orally in a diet; cited from earlier work
Drosophila melanogaster [2] = tested on: Drosophila melanogaster
Description: (§1) The genotoxic and antigenotoxic activity of lyophilized leaves of B. carinata and sinigrin were evaluated by the Drosophila Somatic Mutation and Recombination Test (SMART). Drosophila is a holometabolous animal which in vivo experiments permit to make analogies with humans due to the high percentage of homologue genes in common with human. […] Both characteristics make this test an optimal protocol in order to test molecules and complex mixtures with health benefices for humans. Two different D. melanogaster strains carrying visible wing genetic markers on the left arm of chromosome 3 were used: the flare (flr) strain flr^3/ln (3LR) TM3, Bd^s and the multiple wing-hair (mwh) strain mwh/mwh. These markers were selected due to their position in the Drosophila genome, covering a wide portion of one of their four chromosomes. Specifically, they affect the wing imaginal disks which present more cells with a uniform growth during larvae development than other Drosophila imaginal disks. This fact makes possible to detect easily a high number of mutations, somatic recombinations and disjunctions produced in the Drosophila DNA during all treatment periods by wing microscopic observation. In this sense, these markers are present in other genetic background (strains) but crosses produce mutations with a basal mutation rate too high and disturbing hair anomalous pattems. The marker flare (flr^3, 3_38.3) is a recessive mutation which produces individual wing hairs that are malformed. The flr^3 allele is a zygotic recessive lethal, which is maintained in the strain over the balancer chromosome TM3 (TM3, Bd^S: Third Multiple 3, Beaded-Serrate). The marker multiple wing hairs (mwh, 3_0.3) is a recessive mutation that is viable in homozygous flies, producing multiple hairs per cell instead of the wild type single-hair trichome. Two types of crosses were used: the standard cross with flr^3/TM3, Bd^S females mated to mwh/mwh males and the reciprocal cross.
(§2) Hybrid eggs from crossing optimally fertile flies were collected over an 8-h period. Emerged larvae, 72 ± 4 h later, were cleaned up from remaining feeding medium, using sterile distilled water, and subsequently were transferred into treatment vials. These vials contained tested conditions which consisted of 0.85 g of Drosophila Instant Medium (Formula 4–24, Carolina Biological Supply, Burlington, NC, USA) wetted with 4 mL of a mixture of distilled-sterile water and the appropriate concentration of lyophilized plant or the single compound sinigrin.
(§3) Genotoxicity/antigenotoxicity tests were performed following the standard protocol. Antigenotoxicity tests were carried out by mixing the genotoxin hydrogen peroxide (H2O2, Sigma-Aldrich) with the plant or single compound in appropriate concentrations.
(§4) The groups consisting of approximately 100 larvae each were: (i) negative control (distilled water); (ii) mutagenic positive control (H2O2 0.12 M); (iii) 3 vials with increasing concentrations of B. carinata (1.25, 2.5, and 5 mg·mL^−1); and (iv) 4 vials with increasing concentrations of sinigrin (0.6, 1.2, 2.4 and 4.8 mM). Sinigrin concentrations were chosen on the basis of the sinigrin content of the B. carinata sample used in this study.
(§5) Larvae were fed on both treated and control mediums until pupation (about 48 h). After emergence, resulting adult flies were collected from the treatment vials, sacrificed under CO2 narcotization and stored in a 70% ethanol solution in sterile water.
(§6) Transheterozygous wings (mwhflr^+/mwh^+ flr^3) were mounted and wing hair mutations (spots) were scored. Both dorsal and ventral surfaces of the wings containing 22,000 cells were screened under a photonic microscope (Nikon, Amsterdam, Netherlands) at 400× magnification for the occurrence of individual spots (mwh or flr phenotype) or twin spots (mwh clone adjacent to flr clone).

[3] = tested on: hamster ovary cell line (CHO); settings: cited from earlier work
Caenorhabditis elegans = tested on: Caenorhabditis elegans; parameters: method as in PMID 19277288; settings: C. elegans, cited from earlier work
Drosophila melanogaster [4] = test: Toxicity in SMART: Drosophila adult survival after simple and combined (H2O2) treatment; assay type: in vivo; settings: for Survival, average: average over all assayed concentrations
Description: Toxicity (T) was determined as percentage of survival adults with respect to 450 untreated 72 h old larvae from three independent experiments: T = (N° of emerging individuals in treatment/N° of emerging individuals in the negative control) × 100(1)

Drosophila melanogaster [5] = test: Antigenotoxicity in SMART, combined treatment with H2O2; assay type: in vivo; settings: for Large single spots > 2 cells; m = 5: mutation rate (number of spots) / Small single spots 1–2 cells; m = 2: diagnosis / Small single spots 1–2 cells; m = 2: mutation rate (number of spots) / Total spots m = 2: diagnosis / Total spots m = 2: mutation rate (number of spots) / Twin spots m = 5: mutation rate (number of spots): combined with 0.12 M H2O2; for Small single spots 1–2 cells; m = 2: diagnosis: key: + (positive); − (negative); for Total spots m = 2: diagnosis: key: + (positive); − (negative)
Description: as §1, §2, §3, §4, §5, §6

[6] = sinigrin 0.60 mM, simple treatment
[7] = sinigrin 1.20 mM, simple treatment
[8] = sinigrin 2.40 mM, simple treatment
[9] = sinigrin 4.81 mM, simple treatment

## C=CCC(=NOS(=O)(=O)O)S[C@@H]1O[C@H](CO)[C@@H](O)[C@H](O)[C@H]1O (stereo in doubt) [Sinigrin, sinigrin]
[1]
  Effect on induced hepatocarcinogenesis: able to inhibit induced hepatocarcinogenesis
Drosophila melanogaster [2]; average over all doses, simple treatment
  Total mutation rate, average: 0.15 spots per wing
Drosophila melanogaster [2]; [6]
  Large single spots > 2 cells; m = 5: diagnosis: −
  Large single spots > 2 cells; m = 5: mutation rate (number of spots): 0.03 (1) spots per wing
  Small single spots 1–2 cells; m = 2: diagnosis: −
  Small single spots 1–2 cells; m = 2: mutation rate (number of spots): 0.18 (7) spots per wing
  Total spots m = 2: diagnosis: −
  Total spots m = 2: mutation rate (number of spots): 0.20 (8) spots per wing
  Twin spots m = 5: mutation rate (number of spots): 0 spots per wing
Drosophila melanogaster [2]; [7]
  Large single spots > 2 cells; m = 5: diagnosis: −
  Large single spots > 2 cells; m = 5: mutation rate (number of spots): 0.03 (1) spots per wing
  Small single spots 1–2 cells; m = 2: diagnosis: −
  Small single spots 1–2 cells; m = 2: mutation rate (number of spots): 0.12 (4) spots per wing
  Total spots m = 2: diagnosis: −
  Total spots m = 2: mutation rate (number of spots): 0.18 (6) spots per wing
  Twin spots m = 5: diagnosis: −
  Twin spots m = 5: mutation rate (number of spots): 0.03 (1) spots per wing
Drosophila melanogaster [2]; [8]
  Large single spots > 2 cells; m = 5: diagnosis: −
  Large single spots > 2 cells; m = 5: mutation rate (number of spots): 0.03 (1) spots per wing
  Small single spots 1–2 cells; m = 2: diagnosis: −
  Small single spots 1–2 cells; m = 2: mutation rate (number of spots): 0.08 (3) spots per wing
  Total spots m = 2: diagnosis: −
  Total spots m = 2: mutation rate (number of spots): 0.11 (4) spots per wing
  Twin spots m = 5: mutation rate (number of spots): 0 spots per wing
Drosophila melanogaster [2]; [9]
  Large single spots > 2 cells; m = 5: mutation rate (number of spots): 0 spots per wing
  Small single spots 1–2 cells; m = 2: diagnosis: −
  Small single spots 1–2 cells; m = 2: mutation rate (number of spots): 0.14 (4) spots per wing
  Total spots m = 2: diagnosis: −
  Total spots m = 2: mutation rate (number of spots): 0.14 (4) spots per wing
  Twin spots m = 5: mutation rate (number of spots): 0 spots per wing
[3]; at concentrations of 2 mg·mL^−1
  Chromosome aberrations / sister chromatid exchanges: induced chromosome aberrations but not sister chromatid exchanges
[3]
  Genotoxicity and cytotoxicity: neither genotoxic nor cytotoxic
Caenorhabditis elegans
  Non-toxic up to the concentration: ≤ 80 g/L
Caenorhabditis elegans; with addition of myrosinase
  LC50: 500 µg/mL (≈ 1390 µM)
Drosophila melanogaster [4]; combined treatments with 0.12 M H2O2
  Survival, average: 38.11%
Drosophila melanogaster [4]; simple treatments
  Survival, average: 68.27%
Drosophila melanogaster [4]; sinigrin 0.60 mM, combined with 0.12 M H2O2
  Survival: 25.56 * %
Drosophila melanogaster [4]; sinigrin 0.60 mM, combined with 0.12 M H2O2, listed as sinigrin
  Survival: 25.56%
Drosophila melanogaster [4]; [6]
  Survival: 56.44 * %
Drosophila melanogaster [4]; sinigrin 1.20 mM, combined with 0.12 M H2O2
  Survival: 19.33 * %
Drosophila melanogaster [4]; sinigrin 1.20 mM, combined with 0.12 M H2O2, listed as sinigrin
  Survival: 19.33%
Drosophila melanogaster [4]; [7]
  Survival: 78.22 * %
Drosophila melanogaster [4]; sinigrin 1.20 mM, simple treatment, listed as sinigrin
  Survival: 78.22%
Drosophila melanogaster [4]; sinigrin 2.40 mM, combined with 0.12 M H2O2
  Survival: 47.33 * %
Drosophila melanogaster [4]; [8]
  Survival: 61.56 * %
Drosophila melanogaster [4]; sinigrin 4.81 mM, combined with 0.12 M H2O2
  Survival: 60.22 * %
Drosophila melanogaster [4]; sinigrin 4.81 mM, combined with 0.12 M H2O2, listed as sinigrin
  Survival: 60.22%
Drosophila melanogaster [4]; [9]
  Survival: 76.89 * %
Drosophila melanogaster [4]; survival average, combined (H2O2) against simple treatments
  Reduction of survival: ~ 30%
Drosophila melanogaster [5]; sinigrin 0.60 mM
  Large single spots > 2 cells; m = 5: mutation rate (number of spots): 0 spots per wing
  Small single spots 1–2 cells; m = 2: diagnosis: −
  Small single spots 1–2 cells; m = 2: mutation rate (number of spots): 0.19 (6) spots per wing
  Total spots m = 2: diagnosis: −
  Total spots m = 2: mutation rate (number of spots): 0.19 (6) spots per wing
  Twin spots m = 5: mutation rate (number of spots): 0 spots per wing
Drosophila melanogaster [5]; sinigrin 1.20 mM
  Large single spots > 2 cells; m = 5: mutation rate (number of spots): 0 spots per wing
  Small single spots 1–2 cells; m = 2: diagnosis: −
  Small single spots 1–2 cells; m = 2: mutation rate (number of spots): 0.20 (4) spots per wing
  Total spots m = 2: diagnosis: −
  Total spots m = 2: mutation rate (number of spots): 0.20 (4) spots per wing
  Twin spots m = 5: mutation rate (number of spots): 0 spots per wing
Drosophila melanogaster [5]; sinigrin 2.40 mM
  Large single spots > 2 cells; m = 5: mutation rate (number of spots): 0 spots per wing
  Small single spots 1–2 cells; m = 2: diagnosis: −
  Total spots m = 2: diagnosis: −
  Twin spots m = 5: mutation rate (number of spots): 0 spots per wing
Drosophila melanogaster [5]; sinigrin 4.81 mM, against H2O2
  Percentage of inhibition of clone formation: 84.61%
Drosophila melanogaster [5]; sinigrin 4.81 mM
  Large single spots > 2 cells; m = 5: mutation rate (number of spots): 0 spots per wing
  Small single spots 1–2 cells; m = 2: diagnosis: −
  Small single spots 1–2 cells; m = 2: mutation rate (number of spots): 0.10 (1) spots per wing
  Total spots m = 2: diagnosis: −
  Total spots m = 2: mutation rate (number of spots): 0.10 (1) spots per wing
  Twin spots m = 5: mutation rate (number of spots): 0 spots per wing

## C=CCN=C=S [AITC, allyl-ITCs, reference compound]
[3]; at high cytotoxic doses
  Genotoxicity: not genotoxic
Caenorhabditis elegans
  Lethal concentration value: 0.04 g/L

## OO [H2O2, hydrogen peroxide, reference compound]
Drosophila melanogaster [2]; in vivo
  Large single spots > 2 cells; m = 5: diagnosis: −
  Large single spots > 2 cells; m = 5: mutation rate (number of spots): 0.07 (11) spots per wing
  Small single spots 1–2 cells; m = 2: diagnosis: +
  Small single spots 1–2 cells; m = 2: mutation rate (number of spots): 0.60 (94) spots per wing
  Total spots m = 2: diagnosis: +
  Total spots m = 2: mutation rate (number of spots): 0.65 (109) spots per wing
  Twin spots m = 5: diagnosis: −
  Twin spots m = 5: mutation rate (number of spots): 0.06 (4) spots per wing
Drosophila melanogaster [4]; H2O2 0.12 M, simple treatment, emerged adults vs H2O control
  Survival: 37.78% and 37.78 * %
